Assay results as given in patent US10981932B2, “Macrocyclic indole derivatives” (Bayer Aktiengesellschaft, priority 2016, dated 2021).
Counter-ions that a name gives are not always drawn.

Legend:
SUDHL10 [1] = test: Anti-proliferative effect (CellTiter-Glo, 72 h), SUDHL10; format: cell-based; settings: Homo sapiens, SU-DHL10, 72 h, SUDHL10 cells, antiproliferation, 72 h incubation, median, read-out: Antiproli SUDHL10 [M] (median)
Procedure, shortened: (§1)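 CTG luminescence read-out after 72 h compound exposure, 37 °C, humidified. Time-zero reference plate read at plating.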

SUDHL10 [2] = test: Induction of caspase-3/7 activity (Caspase-Glo 3/7), SUDHL10; format: cell-based; settings: caspase-3/7 induction, SUDHL10 cells, 3 h treatment, median
Procedure, shortened: (§2)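 Caspase-Glo 3/7 luminescence, 3 h compound exposure, 37 °C, humidified. Minus medium-only blank. EC50 fit: C0=1, plateau = reference max induction.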

SUDHL5 [3] = test: Induction of caspase-3/7 activity (Caspase-Glo 3/7), SUDHL5; format: cell-based; settings: caspase-3/7 induction, SUDHL5 cells, 3 h treatment, median
Procedure, shortened: as §2

SUDHL5 [4] = test: Induction of cytotoxicity (CellTiter-Glo, 5 h), SUDHL5
SUDHL5 [5] = test: Anti-proliferative effect (CellTiter-Glo, 72 h), SUDHL5; format: cell-based; settings: SUDHL5 cells, antiproliferation, 72 h incubation, median, read-out: Antiproli SUDHL5 [M] (median)
Procedure, shortened: as §1

SUDHL10 [6] = test: Induction of cytotoxicity (CellTiter-Glo, 5 h), SUDHL10
A2780 = test: Anti-proliferative effect (CellTiter-Glo, 72 h), A2780; format: cell-based; settings: Homo sapiens, A2780, 72 h, A2780 cells, median, read-out: IC50 antiproliferation assay A2780 [M] (median)
Procedure, shortened: as §1

MCL-1 = MCL-1 (Homo sapiens, UniProt Q07820); test: Protein-protein interaction assay MCL-1/Noxa BH3 peptide (MCL-1 assay), TR-FRET; format: binding; settings: MBP-MCL-1 / Noxa BH3-derived peptide, median
Sequence of MCL-1 (Q07820 whole entry): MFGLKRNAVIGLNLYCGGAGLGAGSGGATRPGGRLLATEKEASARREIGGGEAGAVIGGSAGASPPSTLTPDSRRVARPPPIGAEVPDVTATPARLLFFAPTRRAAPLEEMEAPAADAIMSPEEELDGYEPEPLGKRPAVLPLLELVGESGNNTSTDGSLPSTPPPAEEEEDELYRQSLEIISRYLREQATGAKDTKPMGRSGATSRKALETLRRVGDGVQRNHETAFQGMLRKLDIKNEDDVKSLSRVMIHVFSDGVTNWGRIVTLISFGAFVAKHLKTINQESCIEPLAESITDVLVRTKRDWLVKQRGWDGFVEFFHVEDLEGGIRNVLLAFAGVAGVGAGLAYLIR
Procedure, shortened: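 Displacement of the biotinylated Noxa BH3 peptide from MBP-tagged human MCL-1 (1 nM) is detected by time-resolved FRET. Compounds are tested in duplicate across eleven concentrations up to 20 μM, incubated 1 h at 22 °C and overnight at 4 °C, and IC50 is fitted with a four-parameter equation.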

[7] = Homo sapiens, SU-DHL-5, 5 h, read-out: Cytotox SUDHL5 [M] (median), SUDHL5 cells, cytotoxicity induction, CellTiter-Glo, 5 h incubation, median
[8] = Homo sapiens, SU-DHL10, 5 h, read-out: Cytotox SUDHL10 [M] (median), SUDHL10 cells, cytotoxicity induction, CellTiter-Glo, 5 h incubation, median
[9] = read-out: Cytotox SUDHL5 [M] (median), SUDHL5 cells, cytotoxicity induction, CellTiter-Glo, 5 h incubation, median
[10] = read-out: Cytotox SUDHL10 [M] (median), SUDHL10 cells, cytotoxicity induction, CellTiter-Glo, 5 h incubation, median

SMILES	IC50 (SUDHL10 [1]) [M]	EC50 (SUDHL10 [2]; Homo sapiens, SU-DHL10, 3 h) [µM]	EC50 (SUDHL5 [3]; Homo sapiens, SU-DHL-5, 3 h) [µM]	IC50 (SUDHL5 [5]; Homo sapiens, SU-DHL-5, 72 h) [M]	IC50 (A2780) [M]	IC50 (MCL-1) [µM]	EC50 (SUDHL10 [2]) [µM]	EC50 (SUDHL5 [3]) [µM]	IC50 (SUDHL5 [5]) [M]	IC50 (SUDHL5 [4]; [7]) [M]	IC50 (SUDHL10 [6]; [8]) [M]	IC50 (SUDHL5 [4]; [9]) [M]	IC50 (SUDHL10 [6]; [10]) [M]
Cc1nn(C)c2c1-c1cccc3c(CCCOc4cccc5ccccc45)c(C(=O)O)n(c13)CCCCOCC2 (racemic) [Example 017, (rac)-1,3-dimethyl-7-[3-(1-naphthyloxy)propyl]-10,11,12,13,15,16-hexahydro-1H-pyrazolo[4′,3′:9,10][1,6]oxazacyclododecino[8,7,6-hi]indole-8-carboxylic Acid]	2.17e-05	> 33	14.7	6.09e-06	> 3.3e-05	0.00896	31.9			1.36e-05	> 3.3e-05		
Cc1ccc2c(CCCOc3cccc4c3CCCC4)c(C(=O)O)n3c2c1-c1c(C)nn(C)c1COCCCC3 (racemic) [Example 039, (rac)-1,3,4-trimethyl-7-[3-(5,6,7,8-tetrahydronaphthalen-1-yloxy)propyl]-110,11,12,13,15-hexahydropyrazolo[4′3′:9,10][1,6]oxazacycloundecino[8,7,6-hi]indole-8-carboxylic Acid]	1.3e-05	24.8	7.47	1.11e-05	2.14e-05	0.00501				8.59e-06	2.97e-05		
CC(C)c1c2c(nn1C)CN(C)CCCn1c(C(=O)O)c(CCCOc3cccc4ccccc34)c3cccc-2c31 (racemic) [Example 113, (rac)-7,10-dimethyl-1-[3-(naphthalen-1-yloxy)propyl]-11-(propan-2-yl)-4,5,6,7,8,10-hexahydropyrazolo[3′,4′:7,8][1,5]diazecino[9,10,1-hi]indole-2-carboxylic Acid]	6.99e-06				8.81e-06	0.0197				6.84e-06	7.9e-06		
CCc1c2c(nn1C)CN(C)CCCn1c(C(=O)O)c(CCCOc3cccc4ccccc34)c3cccc-2c31 (racemic) [Example 141, (rac)-11-ethyl-7,10-dimethyl-1-[3-(1-naphthyloxy)propyl]-4,5,6,7,8,10-hexahydropyrazolo[3′,4′:7,8][1,5]diazecino[9,10,1-hi]indole-2-carboxylic Acid]	1e-05	7.3	4.08	1.39e-06	1.48e-05	0.00727				3.66e-06	7.87e-06		
Cc1nn(C)c2c1-c1cccc3c(CCCOc4cccc5cc(Cl)ccc45)c(C(=O)O)n(c13)CCCCOC2 (single isomer, unassigned; enantiomer 1) [Example 041, 7-{3-[(6-chloronaphthalen-1-yl)oxy]propyl}-1,3-dimethyl-1,10,11,12,13,15-hexahydropyrazolo[4′,3′:9,10][1,6]oxazacycloundecino[8,7,6-hi]indole-8-carboxylic acid-N-ethylethanamine Salt (Enantiomer 1)]		18.2		9.88e-06	1.81e-05	0.00444		13.1				1.02e-05	1.46e-05

Further lines, with some results ahead:

IC50 (SUDHL10 [1]) [M]	EC50 (SUDHL10 [2]; Homo sapiens, SU-DHL10, 3 h) [µM]	EC50 (SUDHL5 [3]; Homo sapiens, SU-DHL-5, 3 h) [µM]	IC50 (SUDHL5 [5]; Homo sapiens, SU-DHL-5, 72 h) [M]	IC50 (A2780) [M]	IC50 (MCL-1) [µM]	EC50 (SUDHL10 [2]) [µM]	EC50 (SUDHL5 [3]) [µM]	IC50 (SUDHL5 [5]) [M]	SMILES	IC50 (SUDHL5 [4]; [7]) [M]	IC50 (SUDHL10 [6]; [8]) [M]	IC50 (SUDHL5 [4]; [9]) [M]	IC50 (SUDHL10 [6]; [10]) [M]
6.09e-06	7.51	3.94	2.63e-06	> 3.3e-05	0.00328				Cc1c2c(nn1C)COCCCCn1c(C(=O)O)c(CCCOc3cccc4ccccc34)c3cccc-2c31 (racemic) [Example 1-36, (rac)-2,3-dimethyl-7-[3-(naphthalen-1-yloxy)propyl]-2,10,11,12,13,15-hexahydropyrazolo[4′,3′:9,10][1,6]oxazacycloundecino[8,7,6-hi]indole-8-carboxylic Acid]	3.69e-06	1.4e-05		
					0.00355	8.64	4.96	3.62e-06	COCc1nn(C)c2c1-c1cccc3c(CCCOc4cccc5ccccc45)c(C(=O)O)n(c13)CCCN(C)C2 (single isomer, unassigned; enantiomer 2) [Example 1-104, 11-(methoxymethyl)-7,9-dimethyl-1-[3-(1-naphthyloxy)propyl]-4,5,6,7,8,9-hexahydropyrazolo[3′,4′:7,8][1,5]diazecino[9,10,1-hi]indole-2-carboxylic Acid (Enantiomer 2)]			7.21e-06	1.78e-05
